In brackets after ≈: the same amount, converted by molar mass.
Test: Thermodynamic aqueous solubility, shake-flask
Assay type: physicochemical
Settings: PBS pH 7.4, 24 h, 25° C., assay standards
From the text: In addition, chromatographic purity (%) was defined as the peak area of the principal peak relative to the total integrated peak area in the HPLC chromatogram of the calibration standard. A chromatogram of the calibration standard of each test compound, along with a UV/VIS spectrum with labeled absorbance maxima, was generated.

[1] = PBS (shake-flask), aqueous buffer, thermodynamic from solid

| Compound | solubility at 24 h | solubility at 24 h [1] |
| --- | --- | --- |
| CC/C(=C(/CC)c1ccc(O)cc1)c1ccc(O)cc1 [Diethylstilbesterol] | 7.0 µM (≈ 1.88 µg/mL) |  |
| COCCc1ccc(OCC(O)CNC(C)C)cc1 (centres unmarked) [Metoprolol] |  | 193 µM (≈ 51.5 µg/mL) |
| O=C1NC(=O)C(c2ccccc2)(c2ccccc2)N1 [Phenytoin] |  | 102 µM (≈ 25.7 µg/mL) |

Second part, the compound after the results:

| solubility at 24 h | solubility at 24 h [1] | Compound |
| --- | --- | --- |
|  | 153 µM (≈ 81.2 µg/mL) | CC(=O)N1CCN(c2ccc(OCC3COC(Cn4ccnc4)(c4ccc(Cl)cc4Cl)O3)cc2)CC1 (centres unmarked) [Ketoconazole] |
|  | 200 µM (≈ 165 µg/mL) | CO[C@H]1/C=C/O[C@@]2(C)Oc3c(C)c(O)c4c(O)c(c(/C=N/N5CCN(C)CC5)c(O)c4c3C2=O)NC(=O)/C(C)=C\C=C\[C@H](C)[C@H](O)[C@@H](C)[C@@H](O)[C@@H](C)[C@H](OC(C)=O)[C@@H]1C [Rifampicin] |
